Measured values taken from paper PMC6531345 (Bioorganic & medicinal chemistry letters, 2019).

Legend:
native MDH = conditions: counter-screen; cited from earlier work
native Rho = conditions: counter-screen; cited from earlier work
M. tuberculosis PtpB [1] = target: T1, M. tuberculosis PtpB (Mycobacterium tuberculosis, UniProt I6WXK4); format: biochemical; conditions: pNPP substrate, 6–8 replicates
M. tuberculosis PtpB [2] = target: T1, M. tuberculosis PtpB; conditions: cited from earlier work
E. coli GroEL/ES = conditions: high-throughput screen; cited from earlier work
ESKAPE pathogens = conditions: panel of Gram-positive and Gram-negative bacteria; cited from earlier work
human HSP60/10 = conditions: in vitro; cited from earlier work

T1 sequence (I6WXK4 whole entry, looked up): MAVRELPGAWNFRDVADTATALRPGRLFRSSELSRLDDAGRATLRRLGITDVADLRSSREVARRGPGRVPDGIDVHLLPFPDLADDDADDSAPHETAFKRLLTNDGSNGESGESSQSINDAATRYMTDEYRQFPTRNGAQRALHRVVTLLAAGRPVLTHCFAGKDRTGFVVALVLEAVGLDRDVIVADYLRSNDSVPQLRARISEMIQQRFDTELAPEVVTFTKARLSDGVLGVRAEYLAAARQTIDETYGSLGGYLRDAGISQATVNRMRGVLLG

O=[N+]([O-])c1cc(S(=O)(=O)Nc2ccc(-c3nc4cc(NS(=O)(=O)c5ccc(Cl)s5)ccc4o3)cc2)ccc1Cl [28R]
inhibition of native MDH (native MDH): only weakly | inhibition of native Rho (native Rho): only weakly

O=S(=O)(Nc1ccc2oc(-c3ccccc3)nc2c1)c1cccc(O)c1 [L51-m]
dose-response behaviour on PtpB phosphatase activity (M. tuberculosis PtpB [1]): bi-phasic response where compounds activate then inhibit phosphatase activity

O=C(O)C(=O)N(Cc1cccc(Cl)c1)Cc1ccc(S(=O)(=O)NCCC(c2ccccc2)c2ccccc2)s1 [OMTS, (oxalylamino-methylene)-thiophene sulfonamide]
inhibition of M. tuberculosis PtpB (M. tuberculosis PtpB [2]): potent and selective inhibitor

Cc1ccc(S(=O)(=O)Nc2ccc(-c3nc4ccc(NS(=O)(=O)c5ccc(C)cc5)cc4[nH]3)cc2)cc1 [compound 1]
GroEL/ES inhibition (E. coli GroEL/ES): one of our most potent GroEL/ES inhibitors | antibacterial efficacy (ESKAPE pathogens): lacked any appreciable antibacterial efficacy

Cc1ccc(C(=O)Nc2ccc(S(=O)(=O)O)c3cc(S(=O)(=O)O)cc(S(=O)(=O)O)c23)cc1NC(=O)c1cccc(NC(=O)Nc2cccc(C(=O)Nc3cc(C(=O)Nc4ccc(S(=O)(=O)O)c5cc(S(=O)(=O)O)cc(S(=O)(=O)O)c45)ccc3C)c2)c1 [suramin]
inhibition of human HSP60/10 (human HSP60/10): can inhibit human HSP60/10 in vitro
